Test results taken from patent publication US9562036B2, “Fluoromethyl-substituted pyrrole carboxamides as CaV2.2 calcium channel blockers” (GRÜNENTHAL GMBH, priority 2013, dated 2017).

Biological target: T1, Human CaV2.2 channels (Homo sapiens, UniProt Q00975)
T1 construct: expressed in transfected cells; also stably expressing Kir2.3)
Assay: Fluorescent assay for CaV2.2 channels using potassium depolarization to induce channel opening (FLIPR, Fluo 4)
Format: cell-based
Details: 3 μM test compound; 30 mM KCl alternative assay buffer (inactivated channel state); HEK293 cells; read-out: %-Inhib (CaV2.2) @3 μM @30 mM KCl
Source text: In the process, the Ca^2+ influx is quantified in the FLIPR assay with the aid of a Ca^2+-sensitive dye (type Fluo-4, Molecular Probes Europe BV, Leiden, the Netherlands) in a fluorescent imaging plate reader (FLIPR 3, Molecular Devices, Sunnyvale, USA), as described hereinafter.
2. Assay Descriptions and Biological Data: 2.1 Fluorescent Assay for CaV2.2 Channels Using Potassium Depolarization to Induce Channel Opening
Human CaV2.2 channels were stably expressed in HEK293 cells together with alpha2-delta and beta subunits of voltage gated calcium channels. In addition, an inwardly rectifying potassium channel (Kir2.3) was stably expressed in these cells to augment control of the cell membrane potential by the concentration of extracellular potassium ions. Raise of the extracellular potassium concentration leads to depolarization of the membrane potential and thus regulates the voltage dependent state of CaV2.2 channels. For preparation, cells were seeded in black poly-D-lysine coated 96-well plates (Becton Dickinson, Biocoat 4640) in 100 μL medium [500 mL DMEM/F-12 plus Glutamax (Invitrogen 31331-093) plus 5.5 mL MEM NEAA 100× (Invitrogen 11140-035) plus 50 mL FBS decomplemented (Invitrogen 10270-106) plus 200 μg/mL Geneticin (Invitrogen 10131-027) plus 50 μg/mL Hygromycin B (Invitrogen 10687-010) plus 2 μg/mL Blasticidin (anti-bl5b Invivo-Gen) plus 0.2 μg/mL Puromycin (A 11138-03)] at a cell density of 30.000 cells per well. Plates were incubated at 37° C. (5% CO2) for 20 to 23 h. On the day of experiment medium was discarded and cells were loaded with Fluo 4 by addition of 100 μL of basic assay buffer (10 mM HEPES, 1 mM KCl, 149 mM NaCl, 0.8 mM CaC2, 1.7 mM MgCl2, 10 mM Glucose, 0.1% BSA. pH 7.4) containing 2 μM Fluo 4 (Molecular Probes; F-14201), 0.01% pluronic acid (Molecular Probes; P-6866) and 2.5 mM probenecid (Molecular Probes; P36400). Cells were incubated in the dark at 25° C. for 60 min. Then dye containing buffer was discarded and 100 μL basic (1 mM KCl) or alternative (30 mM KCl) assay buffer was added. The alternative assay buffer contained altered concentrations of KCl (30 mM) and NaCl (120 mM) and was used in order to promote the inactivated channel state. After that 25 μL of basic or alternative assay buffer with or without test compound were added and cells were incubated again in the dark at 25° C. for 15 min. Fluorescence intensity was measured on a FLIPR 3 instrument (Molecular Devices Corp., Sunnyvale, Calif.) with excitation at 480 nm and emission at 535 nm. After continuously reading fluorescence for 30 sec, 50 μL of basic assay buffer containing 210 mM KCl (NaCl omitted) were added for depolarization. Peak fluorescent signal intensity was determined and the amplitude of the peak signal, normalized to base line, was used to measure channel inhibition by test compounds.

T1 sequence (Q00975 whole entry): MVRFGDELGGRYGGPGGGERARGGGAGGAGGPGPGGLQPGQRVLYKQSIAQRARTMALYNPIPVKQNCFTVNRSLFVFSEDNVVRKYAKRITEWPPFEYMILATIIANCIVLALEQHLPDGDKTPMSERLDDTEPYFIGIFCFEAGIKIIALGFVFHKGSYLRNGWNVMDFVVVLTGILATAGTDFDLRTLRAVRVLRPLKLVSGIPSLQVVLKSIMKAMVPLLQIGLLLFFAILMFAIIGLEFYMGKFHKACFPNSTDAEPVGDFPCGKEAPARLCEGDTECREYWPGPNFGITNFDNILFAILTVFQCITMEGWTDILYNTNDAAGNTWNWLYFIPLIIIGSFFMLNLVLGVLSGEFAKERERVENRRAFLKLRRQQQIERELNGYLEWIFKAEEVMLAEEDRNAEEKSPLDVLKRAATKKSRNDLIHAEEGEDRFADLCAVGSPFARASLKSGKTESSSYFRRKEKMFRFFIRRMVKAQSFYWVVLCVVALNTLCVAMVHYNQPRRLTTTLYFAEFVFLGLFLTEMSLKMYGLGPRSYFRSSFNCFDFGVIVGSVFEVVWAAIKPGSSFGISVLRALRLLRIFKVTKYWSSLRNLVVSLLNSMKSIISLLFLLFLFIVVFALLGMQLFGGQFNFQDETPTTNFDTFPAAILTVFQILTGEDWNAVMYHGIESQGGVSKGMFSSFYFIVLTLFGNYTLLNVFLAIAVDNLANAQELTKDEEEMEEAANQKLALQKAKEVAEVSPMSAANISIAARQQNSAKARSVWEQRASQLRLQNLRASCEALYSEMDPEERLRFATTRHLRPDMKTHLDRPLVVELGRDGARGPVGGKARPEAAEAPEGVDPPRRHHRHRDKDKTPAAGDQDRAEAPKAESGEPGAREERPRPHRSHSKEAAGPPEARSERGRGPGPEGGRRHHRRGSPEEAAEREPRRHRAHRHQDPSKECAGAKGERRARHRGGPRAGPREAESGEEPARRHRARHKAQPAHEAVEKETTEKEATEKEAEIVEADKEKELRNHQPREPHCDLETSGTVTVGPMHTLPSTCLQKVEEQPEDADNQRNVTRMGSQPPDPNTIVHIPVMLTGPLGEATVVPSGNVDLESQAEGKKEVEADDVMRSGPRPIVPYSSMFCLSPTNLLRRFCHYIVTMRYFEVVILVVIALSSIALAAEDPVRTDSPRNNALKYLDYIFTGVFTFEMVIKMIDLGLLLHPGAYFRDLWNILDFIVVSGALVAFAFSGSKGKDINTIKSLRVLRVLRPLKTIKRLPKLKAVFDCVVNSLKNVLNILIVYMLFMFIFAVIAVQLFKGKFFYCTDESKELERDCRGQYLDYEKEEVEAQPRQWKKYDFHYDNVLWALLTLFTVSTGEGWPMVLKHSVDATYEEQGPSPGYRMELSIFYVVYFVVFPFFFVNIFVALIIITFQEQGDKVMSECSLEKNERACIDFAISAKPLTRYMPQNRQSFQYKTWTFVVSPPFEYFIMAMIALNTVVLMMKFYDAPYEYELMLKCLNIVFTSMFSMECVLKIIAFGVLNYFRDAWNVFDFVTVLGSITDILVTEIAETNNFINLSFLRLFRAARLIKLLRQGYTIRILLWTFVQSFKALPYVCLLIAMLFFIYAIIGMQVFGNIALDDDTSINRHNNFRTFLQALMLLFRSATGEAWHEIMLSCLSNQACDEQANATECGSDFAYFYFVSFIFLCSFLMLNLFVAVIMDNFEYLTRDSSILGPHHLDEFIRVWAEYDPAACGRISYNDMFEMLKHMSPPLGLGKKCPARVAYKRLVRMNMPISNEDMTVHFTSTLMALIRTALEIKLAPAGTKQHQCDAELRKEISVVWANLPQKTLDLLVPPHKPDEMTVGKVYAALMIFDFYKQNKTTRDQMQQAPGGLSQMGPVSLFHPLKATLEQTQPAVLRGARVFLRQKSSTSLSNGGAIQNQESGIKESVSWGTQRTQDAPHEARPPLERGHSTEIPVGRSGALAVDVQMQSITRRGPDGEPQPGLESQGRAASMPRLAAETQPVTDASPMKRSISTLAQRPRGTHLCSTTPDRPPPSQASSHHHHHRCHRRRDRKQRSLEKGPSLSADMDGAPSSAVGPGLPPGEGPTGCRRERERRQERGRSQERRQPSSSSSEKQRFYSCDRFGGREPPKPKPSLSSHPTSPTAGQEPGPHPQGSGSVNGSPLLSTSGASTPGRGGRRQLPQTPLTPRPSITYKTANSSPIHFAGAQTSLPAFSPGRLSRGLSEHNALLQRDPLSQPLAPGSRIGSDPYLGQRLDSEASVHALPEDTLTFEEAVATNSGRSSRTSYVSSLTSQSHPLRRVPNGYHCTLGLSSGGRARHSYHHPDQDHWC

SMILES	inhibition at 3 µM [%]
Cc1c(-c2ccc(Cl)nn2)c(C(=O)N2CCOCC2)n(Cc2ccccc2)c1C(F)(F)F [Example 29, [1-Benzyl-3-(6-chloro-pyridazin-3-yl)-4-methyl-5-(trifluoromethyl)-1H-pyrrol-2-yl]-morpholin-4-yl-methanone]	40 to 75
Cc1c(-c2ccc(F)cn2)c(C(=O)N(C)CC(C)(C)C)n(Cc2ccccc2)c1C(F)(F)F [Example 31, 1-Benzyl-3-(5-fluoropyridin-2-yl)-N,4-dimethyl-N-neopentyl-5-(trifluoromethyl)-1H-pyrrole-2-carboxamide]	> 95
Cc1c(-c2cnccn2)c(C(=O)N(C)CC(C)(C)C)n(Cc2ccccc2)c1C(F)(F)F [Example 34, 1-Benzyl-N,4-dimethyl-N-neopentyl-3-(pyrazin-2-yl)-5-(trifluoromethyl)-1H-pyrrole-2-carboxamide]	75 to 95
Cc1c(-c2ncc(Cl)cn2)c(C(=O)N2CCOCC2)n(Cc2ccccc2)c1C(F)(F)F [Example 25, [1-Benzyl-3-(5-chloro-pyrimidin-2-yl)-4-methyl-5-(trifluoromethyl)-1H-pyrrol-2-yl]-morpholin-4-yl-methanone]	> 95
COc1ccc(-c2c(C)c(C(F)(F)F)n(Cc3ccccc3)c2C(=O)N(C)CC(C)(C)C)cn1 [Example 02, 1-Benzyl-3-(6-methoxypyridin-3-yl)-N,4-dimethyl-N-neopentyl-5-(trifluoromethyl)-1H-pyrrole-2-carboxamide]	40 to 75
COc1cnc(-c2c(C)c(C(F)(F)F)n(Cc3ccccc3)c2C(=O)N(C)CC(C)(C)C)nc1 [Example 30, 1-Benzyl-3-(5-methoxypyrimidin-2-yl)-N,4-dimethyl-N-neopentyl-5-(trifluoromethyl)-1H-pyrrole-2-carboxamide]	75 to 95
Cc1c(-c2ccc(Cl)cn2)c(C(=O)N(C)CCS(C)(=O)=O)n(Cc2ccccc2)c1C(F)(F)F [Example 43, 1-Benzyl-3-(5-chloro-pyridin-2-yl)-N,4-dimethyl-N-(2-methylsulfonyl-ethyl)-5-(trifluoromethyl)-1H-pyrrole-2-carboxylic acid amide]	> 95
Cc1c(-c2ncc(Cl)cc2[S+](C)[O-])c(C(=O)N(C)C(C)C)n(Cc2ccccc2)c1C(F)(F)F (stereo not shown) [Example 61, 1-Benzyl-3-[5-chloro-3-(methylsulfinyl)-pyridin-2-yl]-N-isopropyl-N,4-dimethyl-5-(trifluoromethyl)-1H-pyrrole-2-carboxylic acid amide]	75 to 95
COc1ccc(-c2c(C)c(C(F)(F)F)n(Cc3ccccc3)c2C(=O)N2CCOCC2)cn1 [Example 06, (1-Benzyl-3-(6-methoxypyridin-3-yl)-4-methyl-5-(trifluoromethyl)-1H-pyrrol-2-yl)(morpholino)methanone]	75 to 95
Cc1c(-c2cncnc2)c(C(=O)N(C)CC(C)(C)C)n(Cc2ccccc2)c1C(F)(F)F [Example 11, 1-Benzyl-N-(2,2-dimethyl-propyl)-N,4-dimethyl-3-pyrimidin-5-yl-5-(trifluoromethyl)-1H-pyrrole-2-carboxylic acid amide]	75 to 95
Cc1c(-c2cnn(C)c2)c(C(=O)N2CCOCC2)n(Cc2ccccc2)c1C(F)(F)F [Example 08, (1-Benzyl-4-methyl-3-(1-methyl-1H-pyrazol-4-yl)-5-(trifluoromethyl)-1H-pyrrol-2-yl)(morpholino)methanone]	40 to 75
Cc1c(-c2cncnc2)c(C(=O)N2CCOCC2)n(Cc2ccccc2)c1C(F)(F)F [Example 15, [1-Benzyl-4-methyl-3-pyrimidin-5-yl-5-(trifluoromethyl)-1H-pyrrol-2-yl]-morpholin-4-yl-methanone]	40 to 75
Cc1c(-c2ccc(Cl)cn2)c(C(=O)N(C)CC(C)(C)C)n(Cc2ccccc2)c1C(F)(F)F [Example 41, 1-Benzyl-3-(5-chloro-pyridin-2-yl)-N-(2,2-dimethyl-propyl)-N,4-dimethyl-5-(trifluoromethyl)-1H-pyrrole-2-carboxylic acid amide]	> 95
Cc1c(-c2ncc(F)cn2)c(C(=O)N2CCOCC2)n(Cc2ccccc2)c1C(F)(F)F [Example 38, (1-Benzyl-3-(5-fluoropyrimidin-2-yl)-4-methyl-5-(trifluoromethyl)-1H-pyrrol-2-yl)(morpholino)methanone]	40 to 75
Cc1c(-c2cn[nH]c2)c(C(=O)N2CCOCC2)n(Cc2ccccc2)c1C(F)(F)F [Example 10, (1-Benzyl-4-methyl-3-(1H-pyrazol-4-yl)-5-(trifluoromethyl)-1H-pyrrol-2-yl)(morpholino)methanone]	40 to 75
COc1cc(C)c(-c2c(C)c(C(F)(F)F)n(Cc3ccccc3)c2C(=O)N2CCOCC2)cn1 [Example 28, [1-Benzyl-3-(6-methoxy-4-methyl-pyridin-3-yl)-4-methyl-5-(trifluoromethyl)-1H-pyrrol-2-yl]-morpholin-4-yl-methanone]	75 to 95
Cc1c(-c2ncc(Cl)cn2)c(C(=O)N2CCS(=O)(=O)CC2)n(Cc2ccccc2)c1C(F)(F)F [Example 44, [1-Benzyl-3-(5-chloro-pyrimidin-2-yl)-4-methyl-5-(trifluoromethyl)-1H-pyrrol-2-yl]-(1,1-dioxo-[1,4]thiazinan-4-yl)-methanone]	75 to 95
COc1cnc(-c2c(C)c(C(F)(F)F)n(Cc3ccccc3)c2C(=O)N(C)CC(C)(C)C)cn1 [Example 01, 1-benzyl-3-(5-methoxypyrazin-2-yl)-N,4-dimethyl-N-neopentyl-5-(trifluoromethyl)-1H-pyrrole-2-carboxamide]	75 to 95
Cc1c(-c2ncc(Cl)cn2)c(C(=O)NC(C)C)n(Cc2ccccc2)c1C(F)(F)F [Example 52, 1-Benzyl-3-(5-chloro-pyrimidin-2-yl)-N-isopropyl-4-methyl-5-(trifluoromethyl)-1H-pyrrole-2-carboxylic acid amide]	40 to 75
Cc1c(-c2ncc(C(F)(F)F)cc2F)c(C(=O)N(C)CC(C)(C)C)n(Cc2ccccc2)c1C(F)(F)F [Example 17, 1-Benzyl-N-(2,2-dimethyl-propyl)-3-[3-fluoro-5-(trifluoromethyl)-pyridin-2-yl]-N,4-dimethyl-5-(trifluoromethyl)-1H-pyrrole-2-carboxylic acid amide]	75 to 95
Cc1c(-c2ncc(Cl)cn2)c(C(=O)N(C)CC(C)(C)C(=O)N(C)C)n(Cc2ccccc2)c1C(F)(F)F [Example 58, 1-Benzyl-3-(5-chloro-pyrimidin-2-yl)-N-[2-(dimethyl-carbamoyl)-2-methyl-propyl]-N,4-dimethyl-5-(trifluoromethyl)-1H-pyrrole-2-carboxylic acid amide]	> 95
Cc1c(-c2ccc(F)cn2)c(C(=O)N2CCOCC2)n(Cc2ccccc2)c1C(F)(F)F [Example 36, (1-Benzyl-3-(5-fluoropyridin-2-yl)-4-methyl-5-(trifluoromethyl)-1H-pyrrol-2-yl)(morpholino)methanone]	75 to 95
Cc1cc(Cl)ncc1-c1c(C)c(C(F)(F)F)n(Cc2ccccc2)c1C(=O)N1CCOCC1 [Example 27, [1-Benzyl-3-(6-chloro-4-methyl-pyridin-3-yl)-4-methyl-5-(trifluoromethyl)-1H-pyrrol-2-yl]-morpholin-4-yl-methanone]	75 to 95
Cc1c(-c2ncc(Cl)cn2)c(C(=O)N(C)CC(C)(C)C(N)=O)n(Cc2ccccc2)c1C(F)(F)F [Example 48, 1-Benzyl-N-(2-carbamoyl-2-methyl-propyl)-3-(5-chloro-pyrimidin-2-yl)-N,4-dimethyl-5-(trifluoromethyl)-1H-pyrrole-2-carboxylic acid amide]	> 95
Cc1c(-c2ncc(Cl)cn2)c(C(=O)N(C)CC(C)(C)C)n(Cc2ccccc2)c1C(F)(F)F [Example 18, 1-Benzyl-3-(5-chloro-pyrimidin-2-yl)-N-(2,2-dimethyl-propyl)-N,4-dimethyl-5-(trifluoromethyl)-1H-pyrrole-2-carboxylic acid amide]	> 95
